Results from patent publication US20170260178A1 (SPERO GYRASE, INC., priority 2012, published 2017).
Values after ≈ are worked out from the molar mass of the structure shown.

What was measured:
[1] = tested on: S. aureus (ATCC 29213); assay: Bacterial assay: MIC against S. aureus; type: cell-based, Staphylococcus aureus; conditions: Staphylococcus aureus, ATCC29213, read-out: minimal inhibitory concentration (MIC)
[2] = tested on: S. pyogenes (ATCC 51339); assay: Bacterial assay: MIC against S. pyogenes; type: cell-based, Streptococcus pyogenes; conditions: Streptococcus pyogenes, ATCC51339, read-out: minimal inhibitory concentration (MIC)

SMILES | MIC [1] | MIC [2]
CCNC(=O)Nc1nc2cc(-c3cnc(C(O)(CC)CC)nc3)cc(-c3ccccn3)c2s1 [Compound 98, 1-ethyl-3-[5-[2-(1-ethyl-1-hydroxy-propyl)pyrimidin-5-yl]-7-(2-pyridyl)-1,3-benzothiazol-2-yl]urea] | ≤ 1 µg/mL | ≤ 1 µg/mL
CCNC(=O)Nc1nc2cc(-c3cnc(C(C)(C)O)nc3)cc(-c3nccc(CN4CCOCC4)n3)c2s1 [Compound 101, 1-ethyl-3-[5-[2-(1-hydroxy-1-methyl-ethyl)pyrimidin-5-yl]-7-[4-(morpholinomethyl)pyrimidin-2-yl]-1,3-benzothiazol-2-yl]urea] | ≤ 1 µg/mL | ≤ 1 µg/mL
CCNC(=O)Nc1nc2cc(-c3cnc(C(C)(C)O)nc3)cc(-c3cncc(CN4CCOCC4)n3)c2s1 [Compound 102, 1-ethyl-3-[5-[2-(1-hydroxy-1-methyl-ethyl)pyrimidin-5-yl]-7-[6-(morpholinomethyl)pyrazin-2-yl]-1,3-benzothiazol-2-yl]urea] | 16 µg/mL (≈ 29.9 µM) | 16 µg/mL (≈ 29.9 µM)
CCNC(=O)Nc1nc2cc(-c3cnc(C(C)(C)O)nc3)cc(-c3nccc(NCC(C)(C)O)n3)c2s1 [Compound 103, 1-ethyl-3-[5-[2-(1-hydroxy-1-methyl-ethyl)pyrimidin-5-yl]-7-[4-[(2-hydroxy-2-methyl-propyl)amino]pyrimidin-2-yl]-1,3-benzothiazol-2-yl]urea] | 2 µg/mL (≈ 3.83 µM) | ≤ 1 µg/mL
CCNC(=O)Nc1nc2cc(-c3cnc(C(C)O)nc3)cc(-c3nccc(N4CC(O)C4)n3)c2s1 (centres unmarked) [Compound 105, 1-ethyl-3-[7-[4-(3-hydroxyazetidin-1-yl)pyrimidin-2-yl]-5-[2-(1-hydroxyethyl)pyrimidin-5-yl]-1,3-benzothiazol-2-yl]urea] | 16 µg/mL (≈ 32.5 µM) | ≤ 1 µg/mL
CCNC(=O)Nc1nc2cc(-c3cnc(C(C)O)nc3)cc(-c3ncc(F)c(N4CCOCC4)n3)c2s1 (centres unmarked) [Compound 106, 1-ethyl-3-[7-(5-fluoro-4-morpholino-pyrimidin-2-yl)-5-[2-(1-hydroxyethyl)pyrimidin-5-yl]-1,3-benzothiazol-2-yl]urea] | ≤ 1 µg/mL | ≤ 1 µg/mL
CCNC(=O)Nc1nc2cc(-c3cnc(C(C)(C)O)nc3)cc(-c3nccc(N4CCN(CCOC)CC4)n3)c2s1 [Compound 107, 1-ethyl-3-[5-[2-(1-hydroxy-1-methyl-ethyl)pyrimidin-5-yl]-7-[4-[4-(2-methoxyethyl)piperazin-1-yl]pyrimidin-2-yl]-1,3-benzothiazol-2-yl]urea] | ≤ 1 µg/mL | ≤ 1 µg/mL
CCNC(=O)Nc1nc2cc(-c3ccc(C(O)C(F)(F)F)nc3)cc(-c3cc(CN4CCOCC4)ccn3)c2s1 (centres unmarked) [Compound 108, 1-ethyl-3-[7-[4-(morpholinomethyl)-2-pyridyl]-5-[6-(2,2,2-trifluoro-1-hydroxy-ethyl)-3-pyridyl]-1,3-benzothiazol-2-yl]urea] | ≤ 1 µg/mL | ≤ 1 µg/mL
CCNC(=O)Nc1nc2cc(-c3cnc(C(C)O)nc3)cc(-c3cc(N4CCC(C)(C(=O)O)CC4)ncn3)c2s1 (centres unmarked) [Compound 109, 1-[6-[2-(ethylcarbamoylamino)-5-[2-(1-hydroxyethyl)pyrimidin-5-yl]-1,3-benzothiazol-7-yl]pyrimidin-4-yl]-4-methyl-piperidine-4-carboxylic acid] | 2 µg/mL (≈ 3.55 µM) | ≤ 1 µg/mL
CCNC(=O)Nc1nc2cc(-c3cnc(C(C)(C)O)nc3)cc(-c3cc(N4CCC(C(=O)O)CC4)ccn3)c2s1 [Compound 110, 1-[2-[2-(ethylcarbamoylamino)-5-[2-(1-hydroxy-1-methyl-ethyl)pyrimidin-5-yl]-1,3-benzothiazol-7-yl]-4-pyridyl]piperidine-4-carboxylic acid] | 2 µg/mL (≈ 3.56 µM) | ≤ 1 µg/mL
CCNC(=O)Nc1nc2cc(-c3cnc(C(C)O)nc3)cc(-c3cc(CN4CCC5(CC4)COC5)ccn3)c2s1 (centres unmarked) [Compound 112, 1-ethyl-3-[5-[2-(1-hydroxyethyl)pyrimidin-5-yl]-7-[4-(2-oxa-7-azaspiro[3.5]nonan-7-ylmethyl)-2-pyridyl]-1,3-benzothiazol-2-yl]urea] | ≤ 1 µg/mL | ≤ 1 µg/mL
CCNC(=O)Nc1nc2cc(-c3cnc(C(C)O)nc3)cc(-c3nccc(N4CCC(C)(C(=O)O)CC4)n3)c2s1 (centres unmarked) [Compound 117, 1-[2-[2-(ethylcarbamoylamino)-5-[2-(1-hydroxyethyl)pyrimidin-5-yl]-1,3-benzothiazol-7-yl]pyrimidin-4-yl]-4-methyl-piperidine-4-carboxylic acid] | 16 µg/mL (≈ 28.4 µM) | ≤ 1 µg/mL
CCNC(=O)Nc1nc2cc(-c3cnc(C(C)(C)O)nc3)cc(-c3ncc(CN4CCOCC4)cn3)c2s1 [Compound 120, 1-ethyl-3-[5-[2-(1-hydroxy-1-methyl-ethyl)pyrimidin-5-yl]-7-[5-(morpholinomethyl)pyrimidin-2-yl]-1,3-benzothiazol-2-yl]urea] | ≤ 1 µg/mL | ≤ 1 µg/mL
CCNC(=O)Nc1nc2cc(-c3cnc(C4(O)CCN(C)CC4)nc3)cc(-c3ccccn3)c2s1 [Compound 128, 1-ethyl-3-[5-[2-(4-hydroxy-1-methyl-4-piperidyl)pyrimidin-5-yl]-7-(2-pyridyl)-1,3-benzothiazol-2-yl]urea] | ≤ 1 µg/mL | ≤ 1 µg/mL
CCNC(=O)Nc1nc2cc(-c3cnc(C(C)(C)O)nc3)c(NCCOC)cc2s1 [Compound 150, 1-ethyl-3-[5-[2-(1-hydroxy-1-methyl-ethyl)pyrimidin-5-yl]-6-(2-methoxyethylamino)-1,3-benzothiazol-2-yl]urea] | 2 µg/mL (≈ 4.65 µM) | 8 µg/mL (≈ 18.6 µM)
CCNC(=O)Nc1nc2cc(-c3cnc(C(C)(C)O)nc3)cc(N3CCOCC3)c2s1 [Compound 151, 1-ethyl-3-[5-[2-(1-hydroxy-1-methyl-ethyl)pyrimidin-5-yl]-7-morpholino-1,3-benzothiazol-2-yl]urea] | 2 µg/mL (≈ 4.52 µM) | 2 µg/mL (≈ 4.52 µM)
CCNC(=O)Nc1nc2cc(-c3cnc(C(C)(C)O)nc3)cc(-c3cc(CN4CCC(F)(F)CC4)ccn3)c2s1 [Compound 156, 1-[7-[4-[(4,4-difluoro-1-piperidyl)methyl]-2-pyridyl]-5-[2-(1-hydroxy-1-methyl-ethyl)pyrimidin-5-yl]-1,3-benzothiazol-2-yl]-3-ethyl-urea] | ≤ 1 µg/mL | ≤ 1 µg/mL
CCNC(=O)Nc1nc2cc(-c3cnc(C(C)(C)O)nc3)cc(-c3cc(CN4CCN(C)CC4)ccn3)c2s1 [Compound 159, 1-ethyl-3-[5-[2-(1-hydroxy-1-methyl-ethyl)pyrimidin-5-yl]-7-[4-[(4-methylpiperazin-1-yl)methyl]-2-pyridyl]-1,3-benzothiazol-2-yl]urea] | 2 µg/mL (≈ 3.66 µM) | ≤ 1 µg/mL
CCNC(=O)Nc1nc2cc(-c3cnc(C4(O)CN(C(=O)OC(C)(C)C)C4)nc3)cc(-c3ccccn3)c2s1 [Compound 162, tert-butyl 3-[5-[2-(ethylcarbamoylamino)-7-(2-pyridyl)-1,3-benzothiazol-5-yl]pyrimidin-2-yl]-3-hydroxy-azetidine-1-carboxylate] | ≤ 1 µg/mL | ≤ 1 µg/mL
CCNC(=O)Nc1nc2cc(-c3cnc(C(C)(C)O)nc3)cc(-c3cc(CN4C[C@@H](C)O[C@@H](C)C4)ccn3)c2s1 [Compound 164, 1-[7-[4-[[(2R,6S)-2,6-dimethylmorpholin-4-yl]methyl]-2-pyridyl]-5-[2-(1-hydroxy-1-methyl-ethyl)pyrimidin-5-yl]-1,3-benzothiazol-2-yl]-3-ethyl-urea] | ≤ 1 µg/mL | ≤ 1 µg/mL
CCNC(=O)Nc1nc2cc(-c3cnc(C4(O)CCNCC4)nc3)cc(-c3ccccn3)c2s1 [Compound 174, 1-ethyl-3-[5-[2-(4-hydroxy-4-piperidyl)pyrimidin-5-yl]-7-(2-pyridyl)-1,3-benzothiazol-2-yl]urea] | 8 µg/mL (≈ 16.8 µM) | 2 µg/mL (≈ 4.21 µM)
CCNC(=O)Nc1nc2cc(-c3cnc(C(C)(C)O)nc3)c(OC)cc2s1 [Compound 176, 1-ethyl-3-[5-[2-(1-hydroxy-1-methyl-ethyl)pyrimidin-5-yl]-6-methoxy-1,3-benzothiazol-2-yl]urea] | ≤ 1 µg/mL | ≤ 1 µg/mL
CCNC(=O)Nc1nc2cc(-c3cnc(C(C)(C)O)nc3)c(F)cc2s1 [Compound 177, 1-ethyl-3-[6-fluoro-5-[2-(1-hydroxy-1-methyl-ethyl)pyrimidin-5-yl]-1,3-benzothiazol-2-yl]urea] | ≤ 1 µg/mL | 2 µg/mL (≈ 5.33 µM)
CCNC(=O)Nc1nc2cc(-c3cnc(C(C)(C)O)nc3)c(OCC3CC3)cc2s1 [Compound 182, 1-[6-(cyclopropylmethoxy)-5-[2-(1-hydroxy-1-methyl-ethyl)pyrimidin-5-yl]-1,3-benzothiazol-2-yl]-3-ethyl-urea] | ≤ 1 µg/mL | ≤ 1 µg/mL
CCNC(=O)Nc1nc2cc(-c3cnc(C(C)(C)O)nc3)c(OCCOC)cc2s1 [Compound 183, 1-ethyl-3-[5-[2-(1-hydroxy-1-methyl-ethyl)pyrimidin-5-yl]-6-(2-methoxyethoxy)-1,3-benzothiazol-2-yl]urea] | ≤ 1 µg/mL | ≤ 1 µg/mL
CCNC(=O)Nc1nc2cc(-c3cnc(C(C)(C)O)nc3)c(OCCO)cc2s1 [Compound 186, 1-ethyl-3-[6-(2-hydroxyethoxy)-5-[2-(1-hydroxy-1-methyl-ethyl)pyrimidin-5-yl]-1,3-benzothiazol-2-yl]urea] | 4 µg/mL (≈ 9.58 µM) | 2 µg/mL (≈ 4.79 µM)
CCNC(=O)Nc1nc2cc(-c3cnc(C(C)(C)O)nc3)cc(-c3cc(CN4CC[S+]([O-])CC4)ccn3)c2s1 [Compound 188, 1-ethyl-3-[5-[2-(1-hydroxy-1-methyl-ethyl)pyrimidin-5-yl]-7-[4-[(1-oxo-1,4-thiazinan-4-yl)methyl]-2-pyridyl]-1,3-benzothiazol-2-yl]urea] | ≤ 1 µg/mL | ≤ 1 µg/mL
CCNC(=O)Nc1nc2cc(-c3cnc(C(C)(C)O)nc3)cc(-c3cc(CN4CCS(=O)(=O)CC4)ccn3)c2s1 [Compound 191, 1-[7-[4-[(1,1-dioxo-1,4-thiazinan-4-yl)methyl]-2-pyridyl]-5-[2-(1-hydroxy-1-methyl-ethyl)pyrimidin-5-yl]-1,3-benzothiazol-2-yl]-3-ethyl-urea] | ≤ 1 µg/mL | ≤ 1 µg/mL
